Reference: PubChem BioAssay (NCI)
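Step 1: Grow cells in 96-well plates. Step 2: Expose to compound for 48 hours at 5 concentrations. Step 3: Interpolate endpoints linearly; if unreached, use highest concentration. At the TGI there is no net growth.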

Assays:
Assay in all cases: growth of human tumour cells (NCI), 48 h
NCI-H522 lung = tested on: NCI-H522 lung
M19-MEL melanoma = tested on: M19-MEL melanoma
A498 renal = tested on: A498 renal
LXFL 529 NSCLC = tested on: LXFL 529 NSCLC
SK-MEL-28 melanoma = tested on: SK-MEL-28 melanoma
EKVX NSCLC = tested on: EKVX NSCLC
KM20L2 colon = tested on: KM20L2 colon
SNB-19 CNS = tested on: SNB-19 CNS
COLO 205 colon = tested on: COLO 205 colon
M14 melanoma = tested on: M14 melanoma
XF 498 CNS = tested on: XF 498 CNS
OVCAR-5 ovarian = tested on: OVCAR-5 ovarian
SF-295 CNS = tested on: SF-295 CNS
HT29 colon = tested on: HT29 colon
UO-31 renal = tested on: UO-31 renal
SK-MEL-5 melanoma = tested on: SK-MEL-5 melanoma
NCI-H460 lung = tested on: NCI-H460 lung
LOX IMVI melanoma = tested on: LOX IMVI melanoma
786-0 renal = tested on: 786-0 renal
MOLT-4 leukemia = tested on: MOLT-4 leukemia
IGROV1 ovarian = tested on: IGROV1 ovarian
RXF-631 renal = tested on: RXF-631 renal
DMS 273 small cell lung = tested on: DMS 273 small cell lung
DMS 114 small cell lung = tested on: DMS 114 small cell lung
RXF 393 renal = tested on: RXF 393 renal
OVCAR-3 ovarian = tested on: OVCAR-3 ovarian
UACC-257 melanoma = tested on: UACC-257 melanoma
HCT-15 colon = tested on: HCT-15 colon
SF-539 CNS = tested on: SF-539 CNS
SNB-78 CNS = tested on: SNB-78 CNS
NCI-H23 lung = tested on: NCI-H23 lung
SK-OV-3 ovarian = tested on: SK-OV-3 ovarian
MALME-3M melanoma = tested on: MALME-3M melanoma
TK-10 renal = tested on: TK-10 renal
SN12C renal = tested on: SN12C renal
UACC-62 melanoma = tested on: UACC-62 melanoma
CCRF-CEM leukemia = tested on: CCRF-CEM leukemia
U251 CNS = tested on: U251 CNS
HOP-62 NSCLC = tested on: HOP-62 NSCLC
ACHN renal = tested on: ACHN renal
SNB-75 CNS = tested on: SNB-75 CNS
DLD-1 colon = tested on: DLD-1 colon
SW-620 colon = tested on: SW-620 colon
SF-268 CNS = tested on: SF-268 CNS
OVCAR-8 ovarian = tested on: OVCAR-8 ovarian
OVCAR-4 ovarian = tested on: OVCAR-4 ovarian
A549 NSCLC = tested on: A549 NSCLC
SR leukemia = tested on: SR leukemia
HCT-116 colon = tested on: HCT-116 colon
KM12 colon = tested on: KM12 colon

CCOc1ccc(NC(=O)CC2SC(=Nc3ccc(C)cc3)NC2=O)cc1 (stereo not given)
TGI (NCI-H522 lung): > 100 µM
TGI (M19-MEL melanoma): > 100 µM
TGI (A498 renal): > 100 µM
TGI (LXFL 529 NSCLC): > 100 µM
TGI (SK-MEL-28 melanoma): > 100 µM
TGI (EKVX NSCLC): > 100 µM
TGI (KM20L2 colon): > 100 µM
TGI (SNB-19 CNS): > 100 µM
TGI (COLO 205 colon): > 100 µM
TGI (M14 melanoma): > 100 µM
TGI (XF 498 CNS): > 100 µM
TGI (OVCAR-5 ovarian): > 100 µM
TGI (SF-295 CNS): > 100 µM
TGI (HT29 colon): > 100 µM
TGI (UO-31 renal): > 100 µM
TGI (SK-MEL-5 melanoma): > 100 µM
TGI (NCI-H460 lung): > 100 µM
TGI (LOX IMVI melanoma): > 100 µM
TGI (786-0 renal): > 100 µM
TGI (MOLT-4 leukemia): 77.6 µM
TGI (IGROV1 ovarian): > 100 µM
TGI (RXF-631 renal): > 100 µM
TGI (DMS 273 small cell lung): > 100 µM
TGI (DMS 114 small cell lung): > 100 µM
TGI (RXF 393 renal): > 100 µM
TGI (OVCAR-3 ovarian): > 100 µM
TGI (UACC-257 melanoma): > 100 µM
TGI (HCT-15 colon): > 100 µM
TGI (SF-539 CNS): > 100 µM
TGI (SNB-78 CNS): > 100 µM
TGI (NCI-H23 lung): > 100 µM
TGI (SK-OV-3 ovarian): > 100 µM
TGI (MALME-3M melanoma): > 100 µM
TGI (TK-10 renal): > 100 µM
TGI (SN12C renal): > 100 µM
TGI (UACC-62 melanoma): > 100 µM
TGI (CCRF-CEM leukemia): > 100 µM
TGI (U251 CNS): > 100 µM
TGI (HOP-62 NSCLC): > 100 µM
TGI (ACHN renal): > 100 µM
TGI (SNB-75 CNS): > 100 µM
TGI (DLD-1 colon): > 100 µM
TGI (SW-620 colon): > 100 µM
TGI (SF-268 CNS): > 100 µM
TGI (OVCAR-8 ovarian): > 100 µM
TGI (OVCAR-4 ovarian): > 100 µM
TGI (A549 NSCLC): > 100 µM
TGI (SR leukemia): > 100 µM
TGI (HCT-116 colon): > 100 µM
TGI (KM12 colon): > 100 µM
